In US20230114854A1, “CHIMERIC ANTIGEN RECEPTOR TARGETING B-CELL MATURATION ANTIGEN AND USE THEREOF” (CELLGENTEK CO., LTD., priority 2020, published 2023):
Values joined by “and” are separate entries in the source; they are usually repeats but may differ in a detail not shown here. Identical values can stand only once.

What was measured:
[1] = test system: multiple myeloma cell line H929 xenograft; conditions: for growth inhibition rate (GIR (%)) versus untreated group (Vehicle): Day 17, NK cells 1×10^7 cells i.v. ×3, Velcade and Darzalex 0.5 mg/kg i.p. ×5
Description: In a xenograft animal model using NOD.Cg-Prkdcscid Il2rgtm1Wj1/SzJ (NSG) mouse (Jackson Laboratory, Jax #00557 strain), the anticancer efficacy of BCMA-CAR NK cells expressing BCMA-CAR1 was evaluated.
After subcutaneous implantation of multiple myeloma cell line H929 with high BCMA expression, when the tumor size reached 150 mm^3 (10 days post implantation), 5 mice were randomly assigned to each group, and once every 5 days, BCMA-CAR NK cells or control NK cells (NKvec) were administered at a concentration of 1×10^7 cells via intravenous tail vein injection (i.v.) in a total of 3 administrations. Here, a proteasome inhibitor, Velcade® (ingredient name: Bortezomib) and an antibody medication, Darzalex® (ingredient name: Daratumumab) being used as treatment medications for multiple myeloma patients were used as control drugs, and Velcade® (Vel) and Darzalex® (Dara) were each administered at a concentration of 0.5 mg/kg via intraperitoneal (i.p.) route, once every 3-4 days, in a total of 5 administrations.

[2] = molecular target: BCMA expressed on multiple myeloma cells (H929, MM1.R, OPM-2) (UniProt Q02223); test: cell-based or functional assay
Chain of UniProt Q02223 (Q02223 whole entry): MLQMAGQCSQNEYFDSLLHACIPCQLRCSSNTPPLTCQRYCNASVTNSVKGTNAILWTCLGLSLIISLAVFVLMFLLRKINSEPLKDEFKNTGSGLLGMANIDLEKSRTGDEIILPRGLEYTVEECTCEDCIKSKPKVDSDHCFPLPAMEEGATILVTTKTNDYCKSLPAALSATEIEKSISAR

**Q.** Which results are given for `CC(C)C[C@H](NC(=O)[C@H](Cc1ccccc1)NC(=O)c1cnccn1)B(O)O` [Velcade, Bortezomib]?
**A.** growth inhibition rate (GIR (%)) versus untreated group (Vehicle) [1]: 39%; toxicity (body weight) ([1]; mouse, in vivo): toxicity i.e., a decrease in body weight

**Q.** With Daratumumab [Darzalex] as the molecule, how does the “growth inhibition rate (GIR (%)) versus untreated group (Vehicle)” value [1] read?
**A.** The value was 23%.

B1: BCMA-CAR4 (protein)
chain: EVQLLESGGGLVQPGGSLRLSCAASGFTFSGHYWSWVRQAPGKGLEWVSTVSGSGGDTFYADSVKGRFTISRDNSKNTLYLQMNSLRAEDTAVYYCARGHSVMDVWGQGTLVTVSSGSTSGSGKPSGEGSTKGEIVLTQSPGTLSLSPGERATLSCRASQGIDSYVAWYQQKPGQAPRLLIYDASLRATGIPDRFSGSGSGTDFTLTISRLEPEDFAVYYCQQYNSWPITFGQGTKLEIKRALSNSIMYFSHFVPVFLPAKPTTTPAPRPPTPAPTIASQPLSLRPEASRPAAGGAVHTRGLDKPFWVLVVVGGVLACYSLLVTVAFIIFWVRSKRSRLLHSDYMNMTPRRPGPTRKHYQPYAPPRDFAAYRSGGGGSKRGRKKLLYIFKQPFMRPVQTTQEEDGCSCRFPEEEEGGCELGGGGSRVKFSRSADAPAYQQGQNQLYNELNLGRREEYDVLDKRRGRDPEMGGKPRRKNPQEGLYNELQKDKMAEAYSEIGMKGERRRGKGHDGLYQGLSTATKDTYDALHMQALPPR
**Q.** B1 was tested. Which cytolytic activity toward multiple myeloma cells (H929, MM1.R, OPM-2), versus control NK cells (NKvec) [2] did it give?
**A.** Its cytolytic activity toward multiple myeloma cells (H929, MM1.R, OPM-2), versus control NK cells (NKvec) is 3 to 4 times and > 4 times.

B2: BCMA-CAR2 (protein)
chain: EVQLLESGGGLVQPGGSLRLSCAASGFTFSNYGVHWVRQAPGKGLEWVSYISYSGGTYYNPSLKSRFTISRDNSKNTLYLQMNSLRAEDTAVYYCARDSDDFGFDYWGQGTLVTVSSGSTSGSGKPSGEGSTKGQSVLTQPPSASGTPGQRVTISCQGDSLRSYYVNWYQQLPGTAPKLLIYDHSKRPTGVPDRFSGSKSGTSASLAISGLRSEDEADYYCQSYDSSTVVFGGGTKLTVLGALSNSIMYFSHFVPVFLPAKPTTTPAPRPPTPAPTIASQPLSLRPEASRPAAGGAVHTRGLDKPFWVLVVVGGVLACYSLLVTVAFIIFWVRSKRSRLLHSDYMNMTPRRPGPTRKHYQPYAPPRDFAAYRSGGGGSKRGRKKLLYIFKQPFMRPVQTTQEEDGCSCRFPEEEEGGCELGGGGSRVKFSRSADAPAYQQGQNQLYNELNLGRREEYDVLDKRRGRDPEMGGKPRRKNPQEGLYNELQKDKMAEAYSEIGMKGERRRGKGHDGLYQGLSTATKDTYDALHMQALPPR
**Q.** For B2, which cytolytic activity toward multiple myeloma cells (H929, MM1.R, OPM-2), versus control NK cells (NKvec) [2] is on record?
**A.** The cytolytic activity toward multiple myeloma cells (H929, MM1.R, OPM-2), versus control NK cells (NKvec) was 3 to 4 times and > 4 times.

B3: BCMA-CAR3 (protein)
chain: EVQLLESGGGLVQPGGSLRLSCAASGFTFSDYGLSWVRQAPGKGLEWVSLIDSSGSSTFYADSVKGRFTISRDNSKNTLYLQMNSLRAEDTAVYYCAKEHGLFDSWGQGTLVTVSSGSTSGSGKPSGEGSTKGEIVLTQSPGTLSLSPGERATLSCKASQDIDDDINWYQQKPGQAPRLLIYDASLRATGIPDRFSGSGSGTDFTLTISRLEPEDFAVYYCQQSLRTPITFGQGTKLEIKRALSNSIMYFSHFVPVFLPAKPTTTPAPRPPTPAPTIASQPLSLRPEASRPAAGGAVHTRGLDKPFWVLVVVGGVLACYSLLVTVAFIIFWVRSKRSRLLHSDYMNMTPRRPGPTRKHYQPYAPPRDFAAYRSGGGGSKRGRKKLLYIFKQPFMRPVQTTQEEDGCSCRFPEEEEGGCELGGGGSRVKFSRSADAPAYQQGQNQLYNELNLGRREEYDVLDKRRGRDPEMGGKPRRKNPQEGLYNELQKDKMAEAYSEIGMKGERRRGKGHDGLYQGLSTATKDTYDALHMQALPPR
**Q.** With B3 as the molecule, how does the cytolytic activity toward multiple myeloma cells (H929, MM1.R, OPM-2), versus control NK cells (NKvec) [2] read?
**A.** Its cytolytic activity toward multiple myeloma cells (H929, MM1.R, OPM-2), versus control NK cells (NKvec) is 3 to 4 times and > 4 times.
